Data published in patent US20060234987A1, “Neuroprotective benzo 1 3 oxathiol 2 ones” (priority 2003, published 2006).
pIC50: −log10 of the molar value.

Tested on: SCG neurons
Assay: In vitro protection of SCG neurons from cisplatin killing
Format: cell-based, Sprague Dawley rats
Settings: Rattus norvegicus, Neuron; cisplatin 3 μg/mL, 48 hours, MTS viability; read-out: IC50 (±1 μM), protection of SCG neurons against cisplatin killing
Description: The mechanism of cisplatin's anti-cancer action is not fully understood, but is believed to involve DNA binding and […]. Cisplatin is toxic to neurons. The addition of cisplatin (3 μg/mL) to cultured SCG neurons induces apoptosis of upwards of 80% of the neurons. The addition of selected compounds of Formula I to the cellular media, concurrently with cisplatin, protects upwards of 100% of the neurons, at drug concentrations ranging from 1 to 50 μM (see Example 64).
In Vitro Protection of SCG neurons from cisplatin killing. SCG neurons were isolated from day 1 neonatal Sprague Dawley rats, plated at a cell density of 10,000 cells/well, and incubated in Biowhittaker Ultraculture containing 1% Penstrep, 1% L-glutamine, 0.7% ARAC, 3% rat serum, and NGF (50 ng/mL, Calomone Labs) at 37° C., under a 5% CO2 atmosphere. After 5 days the cells were treated with compound and cisplatin (3 μg/mL). Viability was assessed 48 hours later using MTS (Promega) staining.

`O=c1oc2c(Sc3ccc4ccccc4c3)cc(O)cc2s1` [Compound 23, 5-Hydroxy-7-((2-naphthy)sulfanyl)benzo[1,3]oxathiol-2-one] was tested, and the pIC50 was 4.82.
